Among the data in patent US9067897B2, “2,4-Diaminoquinazolines for spinal muscular atrophy” (Families of Spinal Muscular Atrophy, priority 2004, dated 2015) are EC50 values, retold here.

For the first assay, the system named is SMN2 promoter. The assay is described as follows: SMN2 promoter assay (β-lactamase reporter) in NSC-34 cells. Format: cell-based, mouse. The settings on record: Mus musculus, SMN2 promoter driving β-lactamase, 12 point dose curve, average of 3-6 dose curve experiments. The text has this: All compounds were screened using an in vitro based SMN2 promoter assay. We used NSC-34 cells, a hybrid cell line between mouse spinal cord cells and mouse neuroblastoma cells. NSC-34 cells harbor an expression plasmid containing a 3.4 kb promoter fragment of the SMN2 gene driving β-lactamase expression.
[…] […] CCF2-AM diffuses across the plasma membrane and is converted into an active β-lactamase substrate by cytoplasmic esterase. […] The fold induction is proportional to the extent of β-lactamase produced and in turn proportional to SMN2 promoter activation for a given compound relative to vehicle (DMSO) control. […] These values are used to rank activities of the compounds and derive structure activity relationship.
Consider `Cc1ccc(COc2cccc3nc(N)nc(N)c23)cc1` [Example 1, 5-(4-Methylbenzyloxy)quinazoline-2,4-diamine], for which the EC50 was less than 1 µM.

In turn, `Nc1nc(N)c2c(OCc3ccc(Cl)cc3)cccc2n1` [Example 2, 5-(4-Chlorobenzyloxy)quinazoline-2,4-diamine] displayed an EC50 of less than 1 µM.

The molecule `Nc1nc(N)c2c(OCC(F)(F)F)cccc2n1` [Example 3, 5-(2,2,2-Trifluoroethoxy)quinazoline-2,4-diamine] returned an EC50 of 1 to 5 µM.

Turning to `Nc1nc(N)c2c(OCc3ccc(I)cc3)cccc2n1` [Example 4, 5-(4-Iodobenzyloxy)quinazoline-2,4-diamine], the EC50 is less than 1 µM.

Molecule `Nc1nc(N)c2c(OCc3cccc(Cl)c3)cccc2n1` [Example 5, 5-(3-Chlorobenzyloxy)quinazoline-2,4-diamine] had an EC50 of less than 1 µM.

Take `Nc1nc(N)c2c(OCc3ccccc3Cl)cccc2n1` [Example 6, 5-(2-Chlorobenzyloxy)quinazoline-2,4-diamine]: the EC50 is less than 1 µM.

For `Cc1ccccc1COc1cccc2nc(N)nc(N)c12` [Example 7, 5-(2-Methylbenzyloxy)quinazoline-2,4-diamine], the EC50 is less than 1 µM.

Molecule `Cc1ccc(CCOc2cccc3nc(N)nc(N)c23)cc1` [Example 8, 5-(2-p-Tolylethoxy)quinazoline-2,4-diamine] came in with an EC50 of less than 1 µM.

As for `Nc1nc(N)c2c(OCCc3ccc(Cl)cc3)cccc2n1` [Example 9, 5-[2-(4-Chlorophenyl)ethoxy]quinazoline-2,4-diamine], the EC50 was less than 1 µM.

As for `Cc1cccc(COc2cccc3nc(N)nc(N)c23)c1` [Example 10, 5-(3-Methylbenzyloxy)quinazoline-2,4-diamine], the EC50 was less than 1 µM.

Molecule `Nc1nc(N)c2c(OCc3cccnc3)cccc2n1` [Example 11, 5-(Pyridin-3-ylmethoxy)quinazoline-2,4-diamine] returned an EC50 of less than 1 µM.

`CC(Oc1cccc2nc(N)nc(N)c12)c1ccccc1` (stereo not shown) [Example 12, 5-(1-Phenylethoxy)quinazoline-2,4-diamine]: the EC50 is less than 1 µM.

As for `Nc1nc(N)c2c(OCC3CC=CCC3)cccc2n1` (stereo not shown) [Example 13, 5-(Cyclohex-3-enylmethoxy)quinazoline-2,4-diamine], the EC50 is less than 1 µM.

`Nc1nc(N)c2c(OCC3CCC3)cccc2n1` [Example 14, 5-(Cyclobutylmethoxy)quinazoline-2,4-diamine] returned an EC50 of less than 1 µM.

With `COCCOc1cccc2nc(N)nc(N)c12` [Example 15, 5-(2-Methoxyethoxy)quinazoline-2,4-diamine], the EC50 is less than 1 µM.

As to `Nc1nc(N)c2c(OCC3CC3)cccc2n1` [Example 16, 5-(Cyclopropylmethoxy)quinazoline-2,4-diamine], the EC50 was less than 1 µM.

`Nc1nc(N)c2c(OCC3CCCCC3)cccc2n1` [Example 17, 5-(Cyclohexylmethoxy)quinazoline-2,4-diamine] came in with an EC50 of 1 to 5 µM.

In the case of `Nc1nc(N)c2c(OCC3CCCC3)cccc2n1` [Example 18, 5-(Cyclopentylmethoxy)quinazoline-2,4-diamine], the EC50 is less than 1 µM.

`C=CCOCCOc1cccc2nc(N)nc(N)c12` [Example 19, 5-(2-Allyloxyethoxy)quinazoline-2,4-diamine]: the EC50 was less than 1 µM.

`CN1CCCC(COc2cccc3nc(N)nc(N)c23)C1` (stereo not shown) [Example 20, 5-(1-Methylpiperidin-3-ylmethoxy)quinazoline-2,4-diamine] returned an EC50 of less than 1 µM.

In the case of `Nc1nc(N)c2c(OCc3ccco3)cccc2n1` [Example 21, 5-(Furan-2-ylmethoxy)quinazoline-2,4-diamine], the EC50 was less than 1 µM.

In the case of `Nc1nc(N)c2c(OCc3cccs3)cccc2n1` [Example 22, 5-(Thiophen-2-ylmethoxy)quinazoline-2,4-diamine], the EC50 was less than 1 µM.

Consider `Cc1ccc(Cc2cccc3nc(N)nc(N)c23)cc1` [Example 23, 5-(4-Methylbenzyl)quinazoline-2,4-diamine], for which the EC50 fell in the range of 1 to 5 µM.

Turning to `Nc1nc(N)c2c(Cc3ccccc3)cccc2n1` [Example 24, 5-Benzylquinazoline-2,4-diamine], the EC50 was less than 1 µM.

Regarding `Nc1nc(N)c2c(Cc3ccc(Cl)cc3)cccc2n1` [Example 25, 5-(4-Chlorobenzyl)Quinazoline-2,4-Diamine], the EC50 was less than 1 µM.

In turn, `COc1ccc(Cc2cccc3nc(N)nc(N)c23)cc1` [Example 26, 5-(4-Methoxybenzyl)Quinazoline-2,4-Diamine] showed a concentration for a half-maximal effect (EC50) of less than 1 µM.

As for `Nc1nc(N)c2c(OCCCc3ccc(Cl)cc3)cccc2n1` [Example 27, 5-[3-(4-Chlorophenyl)propoxy]quinazoline-2,4-diamine], the EC50 was less than 1 µM.

Molecule `CC(Oc1cccc2nc(N)nc(N)c12)c1cccc(Cl)c1` (stereo not shown) [Example 28, 5-[1-(3-Chlorophenyl)ethoxy]quinazoline-2,4-diamine] came in with an EC50 of less than 1 µM.

Consider `Nc1nc(N)c2c(SCc3ccc(Cl)cc3)cccc2n1` [Example 29, 5-(4-Chlorobenzylsulfanyl)quinazoline-2,4-diamine], for which the concentration for a half-maximal effect (EC50) was less than 1 µM.

Turning to `Cc1ccc(C#Cc2cccc3nc(N)nc(N)c23)cc1` [Example 30, 5-p-Tolylethynylquinazoline-2,4-diamine], the EC50 was less than 1 µM.

For the molecule `Nc1nc(N)c2c(S(=O)(=O)c3ccc(Cl)cc3)cccc2n1` [Example 31, 5-(4-Chlorobenzenesulfonyl)quinazoline-2,4-diamine], the EC50 was 1 to 5 µM.

Molecule `CC(=O)Nc1nc(NC(C)=O)c2c(OCc3ccc(Cl)cc3)cccc2n1` [Example 32, N-[2-Acetylamino-5-(4-chlorobenzyloxy)quinazolin-4-yl]acetamide] registered an EC50 of 5 to 10 µM.

Molecule `CC1=NOC(COc2cccc3nc(N)nc(N)c23)C1` (stereo not shown) [Example 33, 5-(3-Methyl-4,5-dihydroisoxazol-5-ylmethoxy)quinazoline-2,4-diamine] yielded an EC50 of 1 to 5 µM.

The molecule `Nc1nc(N)c2c(OCc3ccoc3)cccc2n1` [Example 34, 5-(Furan-3-ylmethoxy)quinazoline-2,4-diamine] returned an EC50 of less than 1 µM.

In turn, `Nc1nc(N)c2c(OCc3ccccc3)cccc2n1` [Example 35, 5-Benzyloxyquinazoline-2,4-diamine] had an EC50 of less than 1 µM.

As to `Nc1nc(N)c2c(OCc3ccccn3)cccc2n1` [Example 36, 5-(Pyridin-2-ylmethoxy)Quinazoline-2,4-diamine], the EC50 was less than 1 µM.

In turn, `Nc1nc(N)c2c(OCCc3ccccc3)cccc2n1` [Example 37, 5-Phenethyloxyquinazoline-2,4-diamine] registered an EC50 of less than 1 µM.

Take `CCCCCCCCOc1cccc2nc(N)nc(N)c12` [Example 38, 5-Octyloxyquinazoline-2,4-diamine]: the EC50 was less than 1 µM.

`Nc1nc(N)c2c(OC3Cc4ccccc4C3)cccc2n1` [Example 40, 5-(Indan-2-yloxy)quinazoline-2,4-diamine] gave an EC50 of less than 1 µM.

On to `Nc1nc(N)c2c(O[C@H]3CCc4ccccc43)cccc2n1` [Example 41, 5-((S)-Indan-1-yloxy)quinazoline-2,4-diamine], for which the EC50 was 5 to 10 µM.

Molecule `C[C@H](Oc1cccc2nc(N)nc(N)c12)c1ccccc1` [Example 42, 5-((S)-1-Phenylethoxy)quinazoline-2,4-diamine] displayed an EC50 of less than 1 µM.

Turning to `Nc1nc(N)c2c(COc3ccc(Cl)cc3)cccc2n1` [Example 43, 5-(4-Chlorophenoxymethyl)quinazoline-2,4-diamine], the EC50 was less than 1 µM.

Consider `Cc1ccc(OCc2cccc3nc(N)nc(N)c23)cc1` [Example 44, 5-p-Tolyloxymethylquinazoline-2,4-diamine], for which the EC50 is less than 1 µM.

The molecule `Nc1nc(N)c2c(COc3ccc(F)cc3)cccc2n1` [Example 45, 5-(4-Fluorophenoxymethyl)quinazoline-2,4-diamine] returned an EC50 of less than 1 µM.

In turn, `Nc1nc(N)c2c(Cc3ccsc3)cccc2n1` [Example 46, 5-Thiophen-3-ylmethylquinazoline-2,4-diamine] showed an EC50 of less than 1 µM.

Regarding `Nc1nc(N)c2c(OCc3ccsc3)cccc2n1` [Example 47, 5-(Thiophen-3-ylmethoxy)quinazoline-2,4-diamine], the EC50 was less than 1 µM.

With `CC(Oc1cccc2nc(N)nc(N)c12)c1ccncc1` (stereo not shown) [Example 48, 5-(1-Pyridin-4-ylethoxy)quinazoline-2,4-diamine], the EC50 is less than 1 µM.

`CC(Oc1cccc2nc(N)nc(N)c12)c1ccc(Cl)cc1` (stereo not shown) [Example 49, 5-[1-(4-Chlorophenyl)ethoxy]quinazoline-2,4-diamine] had an EC50 of less than 1 µM.

The molecule `CCC(Oc1cccc2nc(N)nc(N)c12)c1ccc(Cl)cc1` (stereo not shown) [Example 50, 5-[1-(4-Chlorophenyl)propoxy]quinazoline-2,4-diamine] returned an EC50 of less than 1 µM.

Molecule `CC(C)(C)C(Oc1cccc2nc(N)nc(N)c12)c1ccc(Cl)cc1` (stereo not shown) [Example 51, 5-[1-(4-Chlorophenyl)-2,2-dimethylpropoxy]quinazoline-2,4-diamine] returned an EC50 of 5 to 10 µM.

Consider `Nc1nc(N)c2c(OC(c3ccccc3)c3ccccc3)cccc2n1` [Example 52, 5-Benzhydryloxyquinazoline-2,4-diamine], for which the EC50 was less than 1 µM.

Still in this assay, the particulars now being: SMN2 promoter driving β-lactamase, 12 point dose curve, average of 3-6 dose curve experiments.
With “2-(2,4-Diaminoquinazolin-5-yloxy)-1-(4-fluorophenyl)ethanol [Example 167]”, the EC50 is less than 1 µM.

For “5-(3-Fluorobenzyloxy)quinazoline-2,4-diamine [Example 102]”, the EC50 is less than 1 µM.

Turning to “5-((1S,2R,5S)-6,6-Dimethylbieyclo[3.1.1]hept-2-ylmethoxy)quinazoline-2,4-diamine [Example 130]”, the EC50 is less than 1 µM.

The molecule “5-[1-(4-fluorophenyl)-1-methyl-ethoxy]-quinazoline-2,4-diamine [Example 101]” yielded an EC50 of less than 1 µM.
